This passage reports inhibition and Activity results from ChEMBL document CHEMBL3217517, “Alkynylation of N-(3-iodopyridin-2-yl)sulfonamide under Pd/CCu catalysis: a direct one pot synthesis of 7-azaindoles and their pharmacological evaluation as potential inhibitors of sirtuins” (Medchemcomm, 2011).

Molecules are shown by their SMILES.

What is called inhibition is the drop in the measured response relative to a control, in per cent.

Series [1] deals with NAD-dependent histone deacetylase SIR2 (Saccharomyces cerevisiae S288c) (UniProt P06700). Briefly: Inhibition of Ura3 gene expressing yeast NAD-dependent HDAC activity of Sir2 assessed as growth inhibition at 50 uM after 24 to 48 hrs by reporter silencing assay in presence of 5-fluoro orotic acid.
Series [2] has as its target NAD-dependent histone deacetylase SIR2 (Saccharomyces cerevisiae S288c, UniProt P06700). In words: Inhibition of Ura3 gene expressing yeast NAD-dependent HDAC activity of Sir2 assessed as growth inhibition after 24 to 48 hrs by reporter silencing assay in absence of 5-fluoro orotic acid.
In series [3] the target is NAD-dependent histone deacetylase SIR2 (Saccharomyces cerevisiae S288c) (UniProt P06700). In words: Inhibition of Ura3 gene expressing yeast NAD-dependent HDAC activity of Sir2 assessed as growth inhibition after 24 to 48 hrs by reporter silencing assay in presence of 5-fluoro orotic acid.

Sequence of NAD-dependent histone deacetylase SIR2 (Saccharomyces cerevisiae S288c) (P06700 whole entry): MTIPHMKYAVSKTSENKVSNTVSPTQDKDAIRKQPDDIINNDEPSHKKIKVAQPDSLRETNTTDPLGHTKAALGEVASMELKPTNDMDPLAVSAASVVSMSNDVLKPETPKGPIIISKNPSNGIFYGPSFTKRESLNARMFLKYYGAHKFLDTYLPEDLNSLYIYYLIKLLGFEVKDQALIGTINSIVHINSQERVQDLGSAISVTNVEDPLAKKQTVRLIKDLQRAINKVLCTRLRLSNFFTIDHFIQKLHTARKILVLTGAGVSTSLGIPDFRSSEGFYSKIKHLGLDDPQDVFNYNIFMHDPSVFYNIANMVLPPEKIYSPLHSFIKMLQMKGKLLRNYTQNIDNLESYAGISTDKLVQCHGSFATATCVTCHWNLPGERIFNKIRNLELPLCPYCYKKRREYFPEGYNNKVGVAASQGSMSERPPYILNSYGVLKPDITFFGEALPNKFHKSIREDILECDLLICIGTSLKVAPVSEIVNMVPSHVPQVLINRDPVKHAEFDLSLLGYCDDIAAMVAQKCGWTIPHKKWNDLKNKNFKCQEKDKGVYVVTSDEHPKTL
Sequence of NAD-dependent histone deacetylase SIR2 (P06700 whole entry): as above

`O=S(=O)(c1ccccc1)n1c(CCO)cc2cccnc21`: the inhibition in series [1] stood at 15%.

For the compound `CC(C)(C)c1cc2cccnc2n1S(=O)(=O)c1ccccc1`, the inhibition in series [1] came out at 42%. For the same compound, in series [2], the Activity result is on record as “Non-toxic”.

On to `CCCCCc1cc2cccnc2n1S(=O)(=O)c1ccccc1`, for which the inhibition in series [1] is 10%.

For the compound `O=S(=O)(c1ccccc1)n1c(CO)cc2cccnc21`, the Activity result in series [2] is “Non-toxic”.

`O=S(=O)(c1ccccc1)n1c(-c2ccccc2)cc2cccnc21`: the inhibition in series [1] was found to be 37%.

For the compound `O=S(=O)(c1ccccc1)n1c(CCCCl)cc2cccnc21`, the inhibition in series [1] worked out at 12%.

With `CS(=O)(=O)n1c(-c2ccccc2)cc2cccnc21`, the inhibition entry in series [3] was “Dose-dependent effect”; in series [1], 40%. Further, the Activity result in series [2] is “Non-toxic”.

Consider `N#CCCCc1cc2cccnc2n1S(=O)(=O)c1ccccc1`, for which, in series [1], the inhibition came to 10%.

Turning to `CC(O)c1cc2cccnc2n1S(=O)(=O)c1ccccc1` (configuration not stated), in series [1], the inhibition came out at 30%.
